Results published in PMC9837035 (Nature Communications, 2023).
Where “and” joins values, the source holds several entries; their conditions need not be identical. Equal values may be shown once. Read-outs that look alike come from different tables or passages of the source.

Experiments:
ASH1L = target: T1, ASH1L (Homo sapiens, UniProt Q9NR48); assay: Radioisotope-based methyltransferase assay (selectivity); format: biochemical; details: ASH1L, read-out: IC50
T1 construct: purchased Reaction Biology

[1] = Cell viability assay (WST-8), HUDEP-2; format: cell-based, human; details: human, HUDEP-2 cells, control (0 μM) = 100
Experimental: (§1) A WST-8 (2-(2-methoxy-4-nitrophenyl)-3-(4-nitrophenyl)-5-(2,4-disulfophenyl)-2H-tetrazolium) assay using a Cell Counting Kit-8 (DOJINDO) was performed to measure cell viability using an EnSpire microplate reader (PerkinElmer).

HUDEP-2 cells = assay: Cell viability assay (WST-8), HUDEP-2; format: cell-based, human; details: for cell viability in HUDEP-2 cells: control (0 μM) = 100
Experimental: as §1

[2] = tested on: H3K9me2 in peripheral blood; assay: H3K9me2 levels in peripheral blood of treated mice; format: in vivo
Experimental: Preparation of cell lysates and western blotting were performed as described previously. Protein from cells lysates in lysis buffer (50 mM Tris-HCl (pH 7.5), 150 mM NaCl, 5 mM EDTA, 0.1% NP-40, 1 mM dithiothreitol) were separated by sodium dodecyl sulfate–polyacrylamide gel electrophoresis (SDS-PAGE) and transferred to a polyvinylidene difluoride (PVDF) membrane (Millipore) by electroblotting. The membranes incubated with primary antibodies overnight at 4 °C and secondary antibodies for 1 h at room temperature. The immune complexes were detected with the Immobilon Western Chemiluminescent HRP Substrate (Millipore). Luminescence was analyzed on a FUSION SOLO S (Vilber). Western blot bands were visualized using Evolution Capt software (M&S Instruments Inc.). Primary antibodies used were anti-G9a (1:1000, CST, #3306), anti–α-tubulin (1:5000, Abcam, ab18251), anti-H3K9me2 (1:3000, Abcam, ab1220), anti-H3 (1:5000, Abcam, ab1791), anti-H3K27me3 (1:3000, Sigma, 07-449), anti-GLP (1:1000, CST, #35005), anti-FLAG (100 ng/ml, Fujifilm, 01422383), anti-His (1:5000, MBL, PM032), anti-BCL11A (1:1000, abcam, ab19487), anti-ZBTB7A (1:1000, CST, #50565), anti-CHD3 (1:1000, Novus Biologicals, NB100-60412), and anti-CHD4 (1:1000, abcam, ab240640). […]
The dosing solution contained 15% DMSO, 17.5% Cremophor EL, 8.75% EtOH, 8.75% HCO-40, and 50% PBS. […] The weight of each mouse was measured every 3 or 4 days.

G9a = target: T2, G9a (Homo sapiens, UniProt Q96KQ7); assay: Kinetic analysis by ALPHA (IC50 vs H3 peptide or SAM); format: biochemical; parameters: purchased BPS Bioscience; details: for IC50: 3 replicates
T2 sequence (Q96KQ7 1-1210): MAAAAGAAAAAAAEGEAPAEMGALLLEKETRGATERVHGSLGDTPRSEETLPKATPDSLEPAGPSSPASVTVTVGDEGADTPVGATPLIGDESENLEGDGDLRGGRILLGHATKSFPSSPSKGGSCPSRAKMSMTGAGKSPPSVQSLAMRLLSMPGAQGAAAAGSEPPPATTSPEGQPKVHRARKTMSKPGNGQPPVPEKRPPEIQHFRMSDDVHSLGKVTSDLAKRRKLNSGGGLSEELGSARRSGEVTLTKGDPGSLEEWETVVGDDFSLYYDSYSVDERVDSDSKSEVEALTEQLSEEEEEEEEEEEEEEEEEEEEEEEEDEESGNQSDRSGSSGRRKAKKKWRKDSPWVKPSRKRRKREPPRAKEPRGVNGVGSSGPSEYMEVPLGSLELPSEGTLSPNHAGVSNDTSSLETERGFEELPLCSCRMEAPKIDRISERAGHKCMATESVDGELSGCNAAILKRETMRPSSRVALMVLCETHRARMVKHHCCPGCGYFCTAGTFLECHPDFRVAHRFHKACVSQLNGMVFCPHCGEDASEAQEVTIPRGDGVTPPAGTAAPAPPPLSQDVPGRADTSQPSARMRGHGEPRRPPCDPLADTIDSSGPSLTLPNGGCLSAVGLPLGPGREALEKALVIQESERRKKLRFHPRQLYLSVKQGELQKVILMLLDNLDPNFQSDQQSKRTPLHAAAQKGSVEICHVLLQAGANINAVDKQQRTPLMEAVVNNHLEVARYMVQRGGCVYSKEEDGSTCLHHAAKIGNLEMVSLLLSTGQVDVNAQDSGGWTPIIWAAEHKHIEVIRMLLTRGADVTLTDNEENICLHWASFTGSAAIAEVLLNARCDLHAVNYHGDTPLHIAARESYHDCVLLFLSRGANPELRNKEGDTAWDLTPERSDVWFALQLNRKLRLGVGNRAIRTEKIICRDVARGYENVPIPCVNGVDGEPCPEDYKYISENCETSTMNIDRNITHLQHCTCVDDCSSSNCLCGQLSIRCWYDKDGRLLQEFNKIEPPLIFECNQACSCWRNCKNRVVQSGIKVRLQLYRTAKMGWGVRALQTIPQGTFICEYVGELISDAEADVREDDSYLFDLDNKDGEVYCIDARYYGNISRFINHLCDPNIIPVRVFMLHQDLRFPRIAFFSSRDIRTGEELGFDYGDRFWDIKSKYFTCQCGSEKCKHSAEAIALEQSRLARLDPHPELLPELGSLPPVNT
Experimental: Kinetic analysis was measured by ALPHA. […] ALPHA profile was analyzed using Origin (OriginLab).

NSD2 = NSD2 (Homo sapiens, UniProt O96028); assay: Radioisotope-based methyltransferase assay (selectivity)
PRMT8 = PRMT8 (Homo sapiens, UniProt Q9NR22); assay: as above
Chain of PRMT8 (Q9NR22 whole entry): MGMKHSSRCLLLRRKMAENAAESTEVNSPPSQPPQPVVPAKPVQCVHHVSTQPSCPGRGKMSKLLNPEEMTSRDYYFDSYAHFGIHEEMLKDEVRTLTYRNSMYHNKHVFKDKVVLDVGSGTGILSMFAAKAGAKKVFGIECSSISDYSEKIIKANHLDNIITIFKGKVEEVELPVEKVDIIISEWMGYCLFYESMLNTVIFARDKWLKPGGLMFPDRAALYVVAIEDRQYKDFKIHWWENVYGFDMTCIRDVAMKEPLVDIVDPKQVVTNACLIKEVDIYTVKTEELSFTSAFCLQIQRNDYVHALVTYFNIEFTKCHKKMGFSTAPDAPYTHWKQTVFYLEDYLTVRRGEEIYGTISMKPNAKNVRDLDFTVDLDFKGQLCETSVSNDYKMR

Chain of NSD2 (O96028 whole entry): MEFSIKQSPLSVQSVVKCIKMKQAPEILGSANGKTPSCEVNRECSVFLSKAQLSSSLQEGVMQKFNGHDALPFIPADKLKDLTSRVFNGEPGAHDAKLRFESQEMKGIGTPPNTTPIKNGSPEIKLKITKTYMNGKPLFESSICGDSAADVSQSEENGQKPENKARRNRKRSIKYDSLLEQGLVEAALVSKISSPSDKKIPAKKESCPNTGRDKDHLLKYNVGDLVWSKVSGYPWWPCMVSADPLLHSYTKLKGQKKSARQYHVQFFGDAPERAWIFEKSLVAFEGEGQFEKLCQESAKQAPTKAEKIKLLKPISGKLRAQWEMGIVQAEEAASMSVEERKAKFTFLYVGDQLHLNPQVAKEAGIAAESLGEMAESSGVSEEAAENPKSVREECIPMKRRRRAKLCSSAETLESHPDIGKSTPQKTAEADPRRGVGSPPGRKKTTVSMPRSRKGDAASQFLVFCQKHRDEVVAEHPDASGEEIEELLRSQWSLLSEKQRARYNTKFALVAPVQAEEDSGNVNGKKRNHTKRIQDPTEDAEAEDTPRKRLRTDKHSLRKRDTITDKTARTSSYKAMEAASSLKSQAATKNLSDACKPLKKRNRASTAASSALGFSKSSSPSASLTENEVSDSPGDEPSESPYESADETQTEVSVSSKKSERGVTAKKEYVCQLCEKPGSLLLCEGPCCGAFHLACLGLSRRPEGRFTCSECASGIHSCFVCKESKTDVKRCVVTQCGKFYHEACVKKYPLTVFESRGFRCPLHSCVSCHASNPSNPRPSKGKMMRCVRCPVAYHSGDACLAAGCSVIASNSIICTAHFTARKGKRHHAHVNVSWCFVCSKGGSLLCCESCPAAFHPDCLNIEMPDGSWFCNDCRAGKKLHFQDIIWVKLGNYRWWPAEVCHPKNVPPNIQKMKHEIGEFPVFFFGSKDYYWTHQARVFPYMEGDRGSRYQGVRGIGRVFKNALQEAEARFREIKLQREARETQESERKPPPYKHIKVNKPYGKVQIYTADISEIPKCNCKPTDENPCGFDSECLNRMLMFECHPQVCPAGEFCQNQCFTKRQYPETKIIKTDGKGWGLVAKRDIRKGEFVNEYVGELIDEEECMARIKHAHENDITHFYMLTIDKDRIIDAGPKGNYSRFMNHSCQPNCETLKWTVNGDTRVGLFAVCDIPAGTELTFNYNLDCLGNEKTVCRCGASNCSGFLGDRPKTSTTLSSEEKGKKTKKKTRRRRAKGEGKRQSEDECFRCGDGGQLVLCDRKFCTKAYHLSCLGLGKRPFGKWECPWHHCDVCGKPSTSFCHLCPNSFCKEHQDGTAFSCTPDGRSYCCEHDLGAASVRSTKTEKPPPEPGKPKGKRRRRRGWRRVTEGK

With Cc1c(C(=O)NC(CCC2CC2)C(=O)Nc2ccc(C#N)cc2)[nH]c2c1C(=O)CC(C)(C)C2 (stereo not drawn) [RK-701] as the compound, how does the IC50 (ASH1L; 1 μM SAM) read?
The IC50 was 79.4 µM.

What about the IC50 (ASH1L; RK-701 in duplicate) of the same compound?
Its IC50 is 80.4 µM and 78.4 µM.

And the viability at 0.0137174 μM ([1]; 0.0137174 μM)?
Its viability at 0.0137174 μM is 99.9%.

What about the viability at 0.123457 μM ([1]; 0.123457 μM) of the same compound?
The viability at 0.123457 μM was 97.4%.

And the viability at 0.37037 μM ([1]; 0.37037 μM)?
The viability at 0.37037 μM was 99.9%.

And the viability at 1.11111 μM ([1]; 1.11111 μM)?
The viability at 1.11111 μM was 105%.

What about the viability at 3.33333 μM ([1]; 3.33333 μM) of the same compound?
Its viability at 3.33333 μM is 94.3%.

What about the viability at 10 μM ([1]; 10 μM) of the same compound?
Its viability at 10 μM is 77.4%.

And the “cell viability in HUDEP-2 cells” value (HUDEP-2 cells; 0.00457247 μM)?
The value was 120.908 and 97.8824 and 118.228.

What about the “cell viability in HUDEP-2 cells” value (HUDEP-2 cells; 0.0137174 μM) of the same compound?
The value was 97.2549 and 110.051.

What about the “cell viability in HUDEP-2 cells” value (HUDEP-2 cells; 0.0411523 μM) of the same compound?
Its value is 112.451 and 91.2941 and 106.985.

What about the “cell viability in HUDEP-2 cells” value (HUDEP-2 cells; 0.123457 μM) of the same compound?
Its value is 96.9412 and 105.622.

What about the “cell viability in HUDEP-2 cells” value (HUDEP-2 cells; 0.37037 μM) of the same compound?
The value was 97.8824 and 103.918.

And the “cell viability in HUDEP-2 cells” value (HUDEP-2 cells; 1.11111 μM)?
The value was 96.3137 and 96.4225.

And the “cell viability in HUDEP-2 cells” value (HUDEP-2 cells; 3.33333 μM)?
The value was 88.1569 and 84.8382.

What about the “cell viability in HUDEP-2 cells” value (HUDEP-2 cells; 10 μM) of the same compound?
The value was 78.4314 and 79.046.

And the “cytotoxic effect on viability” value (HUDEP-2 cells; HUDEP-2, 3 days)?
The value was “essentially no cytotoxic effect”.

What about the “H3K9me2 levels in peripheral blood cells” value [2] of the same compound?
The value was “significant decrease”.

What about the “mode of inhibition, SAM” value (G9a) of the same compound?
The value was “uncompetitive inhibition with respect to SAM”.

What about the “mode of inhibition, histone H3 peptide” value (G9a) of the same compound?
Its value is “histone H3 substrate-competitive inhibitor”.

And the IC50 (G9a; H3(1-21)-biotin 6.25 nM)?
Its IC50 is 9.85 nM and 9.46 nM and 8.82 nM.

And the IC50 (G9a; H3(1-21)-biotin 12.5 nM)?
The IC50 was 8.26 nM and 13.4 nM and 10.5 nM.

And the IC50 (G9a; H3(1-21)-biotin 25 nM)?
The IC50 was 11.7 nM and 18.2 nM and 17.3 nM.

And the IC50 (G9a; H3(1-21)-biotin 50 nM)?
The IC50 was 20.2 nM and 32.1 nM and 26.2 nM.

And the IC50 (G9a; H3(1-21)-biotin 100 nM)?
The IC50 was 34.8 nM and 34.6 nM and 31.4 nM.

And the IC50 (G9a; SAM 0.47 µM)?
The IC50 was 154 nM and 149 nM and 150 nM.

What about the IC50 (G9a; SAM 0.94 µM) of the same compound?
The IC50 was 65.3 nM and 98.6 nM and 43.1 nM.

What about the IC50 (G9a; SAM 1.88 µM) of the same compound?
Its IC50 is 30.6 nM and 57.4 nM and 24.3 nM.

And the IC50 (G9a; SAM 3.75 µM)?
Its IC50 is 23.5 nM and 39.6 nM and 21.1 nM.

What about the IC50 (G9a; SAM 7.5 µM) of the same compound?
Its IC50 is 27.8 nM and 38.9 nM and 11.8 nM.

What about the IC50 (G9a; SAM 15 µM) of the same compound?
Its IC50 is 25 nM and 37.5 nM and 12.8 nM.

And the IC50 (NSD2)?
The IC50 was greater than 100 µM.

And the IC50 (PRMT8)?
The IC50 was greater than 100 µM.
